pIC50: −log10 of the molar value.
Tests used:
[1] = test system: Radical scavenging activity; assay: DPPH radical scavenging activity in ethanol solution; assay type: functional; conditions: for pIC50: read-out: IC50
[2] = test system: Radical scavenging activity; assay: DPPH radical scavenging activity in liposome; assay type: functional; conditions: for pIC50: read-out: IC50

SMILES | IC50 [1] | IC50 [2] | pIC50 [1] | pIC50 [2]
COc1cc(C(=O)O)cc(O)c1OC | Not Active | Not Active |  | 
COC(=O)c1cc(O)c(O)c(O)c1 [GALLIC ACID METHYL ESTER] |  |  | 5.14 | 5.08
O=C(O)c1cc(O)c(O)c(O)c1 [GALLIC ACID] |  |  | 5.22 | 5.14
COc1cc(C(=O)O)cc(OC)c1OC [3,4,5-TRIMETHOXYBENZOIC ACID] | Not Active | Not Active |  | 
COc1cc(C(=O)O)cc(OC)c1O [SYRINGIC ACID] |  |  | 5.14 | 5.13

From ChEMBL document CHEMBL1146853, “Proton dissociation is important to understanding structure-activity relationships of gallic acid antioxidants” (Bioorg Med Chem Lett, 2006)
